Measured values from patent US20150105252A1, “SUBSTITUTED PYRAZOLES AS HERBICIDES” (E I DU PONT DE NEMOURS AND COMPANY, priority 2013, published 2015).

Assays:
corn [1] = experiment: Test C postemergence; format: in vivo, Zea mays; conditions: for Plant response rating (scale of 0 to 100 where 0 is no effect and 100 is complete control), Corn: Postemergence, 31 g ai/ha, visually evaluated after 13 to 15 days; for Corn plant response rating / Plant response rating, Corn: postemergence; for Corn plant response rating: 62 g ai/ha, scale 0 to 100
Procedure, shortened: (§1)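 Seeds were sown in a loam soil–sand blend and sprayed preemergence with compounds formulated in a non-phytotoxic solvent mixture containing surfactant. Postemergence plants, grown in peat/vermiculite medium to 2–18 cm (1- to 4-leaf stage), received the same formulation. After 13 to 15 days in a greenhouse, injury was rated visually against controls (0 = no effect, 100 = complete control).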

waterhemp = experiment: Test C postemergence; format: in vivo, Amaranthus rudis; conditions: for Waterhemp plant response rating / Plant response rating, Waterhemp: postemergence; for Waterhemp plant response rating: scale 0 to 100
Procedure, shortened: as §1

galium = experiment: Test C postemergence; format: in vivo, Galium aparine; conditions: for Plant response rating (scale of 0 to 100 where 0 is no effect and 100 is complete control), Galium: Postemergence, 31 g ai/ha, visually evaluated after 13 to 15 days; for Galium plant response rating / Plant response rating, Galium: postemergence; for Galium plant response rating: 62 g ai/ha, scale 0 to 100
Procedure, shortened: as §1

sedge, umbrella = experiment: Test B flood; format: in vivo, Cyperus difformis; conditions: 250 g ai/ha, visual rating on 0 to 100 scale (0 no effect, 100 complete control), 13 to 15 days
Procedure, shortened: (§2)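 Plants were grown to the 2-leaf stage, then pots were flooded to 3 cm above the soil and compounds were applied directly into the paddy water. Water depth was held for the whole test; after 13 to 15 days in a greenhouse, injury was visually rated against untreated controls (0 = no effect, 100 = complete control).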

ryegrass, Italian = experiment: Test C preemergence; format: in vivo, Lolium multiflorum
Procedure, shortened: as §1

morningglory [2] = experiment: Test C postemergence; format: in vivo, Ipomoea coccinea; conditions: for Plant response rating (scale of 0 to 100 where 0 is no effect and 100 is complete control), Morningglory: Postemergence, 31 g ai/ha, visually evaluated after 13 to 15 days; for Morningglory plant response rating / Plant response rating, Morningglory: postemergence; for Morningglory plant response rating: 62 g ai/ha, scale 0 to 100
Procedure, shortened: as §1

ragweed = experiment: Test C postemergence; format: in vivo, Ambrosia elation; conditions: postemergence
Procedure, shortened: as §1

foxtail, giant = experiment: Test A postemergence; format: in vivo, Setaria faberii
Procedure, shortened: (§3)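 After sowing in a sand–loam mix, pots received compound preemergence by directed soil spray, or postemergence once plants reached the one- to two-leaf stage (2–10 cm). Formulation contained surfactant in a non-phytotoxic solvent. Injury was scored visually after ~10 greenhouse days, 0–100 scale.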

morningglory [3] = experiment: Test A preemergence; format: in vivo, Ipomoea spp.; conditions: preemergence
Procedure, shortened: as §3

barnyardgrass = experiment: Test B flood; format: in vivo, Echinochloa crus-galli; conditions: 250 g ai/ha, visual rating on 0 to 100 scale (0 no effect, 100 complete control), 13 to 15 days
Procedure, shortened: as §2

corn [4] = experiment: Test A preemergence; format: in vivo, Zea mays; conditions: preemergence
Procedure, shortened: as §3

pigweed = experiment: Test C postemergence; format: in vivo, Amaranthus retroflexus; conditions: for Pigweed plant response rating / Plant response rating, Pigweed: postemergence; for Pigweed plant response rating: 62 g ai/ha, scale 0 to 100
Procedure, shortened: as §1

velvetleaf = experiment: Test A preemergence; format: in vivo, Abutilon theophrasti; conditions: preemergence
Procedure, shortened: as §3

crabgrass, large = experiment: Test A preemergence; format: in vivo, Digitaria sanguinalis; conditions: preemergence
Procedure, shortened: as §3

ducksalad = experiment: Test B flood; format: in vivo, Heteranthera limosa; conditions: 250 g ai/ha, visual rating on 0 to 100 scale (0 no effect, 100 complete control), 13 to 15 days
Procedure, shortened: as §2

[5] = 250 g ai/ha, scale 0 to 100 (0 no effect, 100 complete control)
[6] = 125 g ai/ha, scale 0 to 100, 0 no effect, 100 complete control
[7] = Postemergence, 31 g ai/ha, visually evaluated after 13 to 15 days
[8] = preemergence, 62 g ai/ha, scale 0 to 100 (0 no effect, 100 complete control), 13 to 15 days
[9] = 125 g ai/ha, visual injury, 0 to 100 scale, approx. 10 days
[10] = 500 g ai/ha, visual injury after approx. 10 days, 0 to 100 scale (0 no effect, 100 complete control)
[11] = 125 g ai/ha, visual injury approx. 10 days after treatment

SMILES	Plant response rating (scale of 0 to 100 where 0 is no effect and 100 is complete control), Corn (corn [1])	Corn plant response rating (corn [1])	Plant response rating, Corn (corn [1]; [5])	Plant response rating, Corn (corn [1]; [6])	Plant response rating, Waterhemp (waterhemp; [5])	Plant response rating (scale of 0 to 100 where 0 is no effect and 100 is complete control), Galium (galium)	Galium plant response rating (galium)	Plant response rating, Galium (galium; [5])	Plant response rating, Galium (galium; [6])	Plant response rating, Sedge, Umbrella (sedge, umbrella)	Ryegrass, Italian plant response rating (ryegrass, Italian; [8])	Plant response rating (scale of 0 to 100 where 0 is no effect and 100 is complete control), Morningglory (morningglory [2])	Morningglory plant response rating (morningglory [2])	Plant response rating, Morningglory (morningglory [2]; [5])	Plant response rating, Morningglory (morningglory [2]; [6])	Plant response rating, Ragweed (ragweed; [5])	Plant response rating, Barnyardgrass (barnyardgrass)	Corn plant response rating (corn [4]; [10])	Pigweed plant response rating (pigweed)	Plant response rating, Pigweed (pigweed; [5])	also measured
CCCNC(=O)c1cc(CC)n(Cc2nc(C(F)(F)F)nn2C)n1 [Compound 109]	5	10	15	15	75	50	50	80	65	0	50	65	70	85	75	80	0	80	40	65	Plant response rating (scale of 0 to 100 where 0 is no effect and 100 is complete control), Waterhemp (waterhemp; [7]): 35; Waterhemp plant response rating (waterhemp; 62 g ai/ha): 35; Plant response rating, Waterhemp (waterhemp; [6]): 60; Plant response rating (scale of 0 to 100), Ryegrass, Italian (ryegrass, Italian; Preemergence, 250 g ai/ha): 100; Ryegrass, Italian plant response rating (ryegrass, Italian; preemergence, 31 g ai/ha, visual rating, scale 0 to 100 (0 no effect, 100 complete control), 13 to 15 days): 10; Ryegrass, Italian plant response rating (ryegrass, Italian; preemergence, 125 g ai/ha, scale 0 to 100, 0 is no effect, 100 is complete control): 100; Foxtail, Giant plant response rating (foxtail, giant; Postemergence, 500 g ai/ha, visual rating after approx. 10 days, 0 to 100 scale (0 no effect, 100 complete control)): 90; Foxtail, Giant plant response rating (foxtail, giant; postemergence, 125 g ai/ha, about 10 days, visual rating on 0 to 100 scale (0 no effect, 100 complete control)): 90; Morningglory plant response rating (morningglory [3]; [9]): 100; Morningglory plant response rating (morningglory [3]; [10]): 100; Corn plant response rating (corn [4]; [9]): 60; Plant response rating (scale of 0 to 100 where 0 is no effect and 100 is complete control), Pigweed (pigweed; [7]): 10; Plant response rating, Pigweed (pigweed; [6]): 65; Velvetleaf plant response rating (velvetleaf; [9]): 70; Velvetleaf plant response rating (velvetleaf; [10]): 100; Crabgrass, Large plant response rating (crabgrass, large; [9]): 100; Crabgrass, Large plant response rating (crabgrass, large; [10]): 100; Plant response rating, Ducksalad (ducksalad): 0
CCc1cc(C(=O)NC2CC2)nn1Cc1ccnc(Br)c1 [Compound 220]	5	5	10	5	45	50	40	80	60	70	0	10	55	70	40	45	0	90	25	60	Waterhemp plant response rating (waterhemp): 45; Plant response rating, Ryegrass, Italian (ryegrass, Italian; Preemergence, rate head not shown (block before 16 g ai/ha), scale 0 to 100): 0; Plant response rating, Ryegrass, Italian (ryegrass, Italian; preemergence, 125 g ai/ha, 13 to 15 days, scale 0 to 100, 0 = no effect, 100 = complete control): 5; Ryegrass, Italian plant response rating (ryegrass, Italian; preemergence, 250 g ai/ha, scale 0 to 100, 0 is no effect, 100 is complete control): 5; Plant response rating, Ragweed (ragweed; [6]): 50; Foxtail, Giant plant response rating (foxtail, giant; Postemergence, 125 g ai/ha, 0 to 100 scale, 0 no effect, 100 complete control): 90; Foxtail, Giant plant response rating (foxtail, giant; Postemergence, 500 g ai/ha, 0 to 100 scale (0 no effect, 100 complete control)): 100; Morningglory plant response rating (0 to 100 scale) (morningglory [3]; [11]): 20; Corn plant response rating (0 to 100 scale) (corn [4]; [11]): 0; Plant response rating, Pigweed (pigweed; [6]): 40; Crabgrass, Large plant response rating (0 to 100 scale) (crabgrass, large; [11]): 100; Crabgrass, Large plant response rating (crabgrass, large; [10]): 100; Plant response rating, Ducksalad (ducksalad): 65
